According to patent US7223794B2, “Arylheteroalkylamine derivatives and their use as inhibitors of nitric oxide synthase” (AstraZeneca AB, priority 2001, dated 2007):
Where a name gives a salt, the structure may show the parent alone.

Tested on: human form of induced nitric oxide synthase
Experiment: Screen 3: nitrite accumulation (Griess) in cytokine-induced DLD-1 cells
Type: cell-based
Settings: DLD-1 cells induced with gamma-IFN, TNF-alpha, IL-6, IL-1-beta, 5 hours incubation with compound, read-out: IC50 (inhibition of nitrite accumulation)
Description: The human colorectal carcinoma cell line, DLD-1 (obtained from the European Collection of Animal Cell Culture—cell line number 90102540) was routinely grown in RPMI 1640 supplemented with 10%(v/v) foetal bovine serum, and 2 mM L-glutanmine, at 37° C. in 5% CO2.
Nitric oxide synthase was induced in cells by addition of medium containing human recombinant gamma-IFN (1000 units/ml), TNF-alpha (200 U/ml), IL-6 (200 U/ml) and IL-1-beta (250 U/ml). After incubation for 18 hours at 37° C., the medium was removed and the cells washed with warm phosphate buffered saline. Cells were incubated for a further 5 hours at 37° C./5% CO2 in RPMI 1640 containing 100 μM L-arginine and 100 μM verapamil-HCl in the presence and absence of test compounds.
Nitrite accumulation was determined by mixing an equal volume of culture media with Griess reagent (10 mg/ml sulphanilamide, 1 mg N-(1-naphthyl)ethylenediamine in 1 ml 2.5% (v/v) phosphoric acid). Inhibition in the presence of compounds was calculated relative to the nitrite levels produced by untreated cells. IC50 values were estimated from a semi-log plot of % inhibition versus concentration of compound.

| SMILES | IC50 |
| --- | --- |
| N#Cc1ccc(Cl)cc1SC(CN)c1cccnc1 (stereo not drawn) [Example 11, 2-[[2-Amino-1-(3-pyridinyl)ethyl]thio]-4-chlorobenzonitrile] | < 100 µM |
| N#Cc1ccc(C(F)(F)F)nc1S[C@H](CN)c1ccccc1 [Example 7, 2-[[(1S)-2-Amino-1-phenylethyl]thio]-6-(trifluoromethyl)-3-piridinecarbonitrile] | < 100 µM |
| COc1ccc(C#N)c(S[C@H](CN)c2ccccc2)c1 [Example 8, 2-[[(1S)-2-Amino-1-phenylethyl]thio]-4-methoxybenzonitrile hydrochloride] | < 100 µM |

Results, then the compound that gave them:

| IC50 | SMILES |
| --- | --- |
| < 100 µM | CC(=N)NCC(Oc1cc(Cl)c(F)cc1C#N)c1ccccc1.Cl (stereo not drawn) [Example 5, N-[2-(5-Chloro-2-cyano-4-fluorophenoxy)-2-phenylethyl]-ethanimidamide hydrochloride] |
| < 100 µM | Cc1ccc(C#N)c(S[C@H](CN)c2ccccc2)n1 [Example 2, 2-[[(1S)-2-Amino-1-phenylethyl]thio]-6-methyl-3-pyridinecarbonitrile hydrochloride] |
| < 100 µM | CNC[C@@H](Sc1cc(Cl)ccc1C#N)c1ccccc1 [Example 9, 4-Chloro-2-[[(1S)-2-(methylamino)-1-phenylethyl]thio]benzonitrile hydrochloride] |
| < 100 µM | N#Cc1cc(F)c(Cl)cc1O[C@H](CN)c1ccon1 [Example 10, 2-[[(1R)-2-Amino-1-(3-isoxazolyl)ethyl]oxy]-4-chloro-5-fluorobenzonitrile ethanedioate] |
| < 100 µM | NCC(Sc1cc(Cl)ccc1Cl)c1ccccc1 (stereo not drawn) [Example 3, 2-[(2,5-Dichlorophenyl)thio]-2-phenylethylamine hydrochloride] |
| < 100 µM | N#Cc1cc(F)c(Cl)cc1O[C@H](CN)c1ccccc1 [Example 1, 2-[[(1S)-2-Amino-1-phenylethyl]oxy]-4-chloro-5-fluorobenzonitrile (E)-butenedioate] |
| < 100 µM | N#Cc1ccc(Cl)cc1S[C@H](CN)c1ccccc1 [Example 4, 2-[[(1S)-2-Amino-1-phenylethyl]thio]-4-chlorobenzonitrile hydrochloride] |

Tested on: not given
Experiment: not given
Settings: not given

| melting point | SMILES |
| --- | --- |
| 133 to 135 °C | CC(=N)NCC(Oc1cc(Cl)c(F)cc1C#N)c1ccccc1.Cl (stereo not drawn) [Example 5, N-[2-(5-Chloro-2-cyano-4-fluorophenoxy)-2-phenylethyl]-ethanimidamide hydrochloride] |

Molecular target: T1, Nitric oxide synthase (Mus musculus, UniProt P29477)
T1 construct: endogenous in cells; host or cells: J774A-1 murine macrophage cell line, induced with LPS and IFNg; crude cell lysate
Experiment: Screen 1: nitric oxide synthase inhibition, 3H-L-arginine to 3H-L-citrulline conversion, lysate of induced J774A-1 cells
Type: biochemical, murine
Settings: enzyme from LPS/IFNg-induced J774A-1 macrophage lysate; 1 hour at room temperature; read-out: IC50 (concentration of drug substance which gives 50% enzyme inhibition in the assay)
Description: The activity of compounds of formula (I), or a pharmaceutically acceptable salt thereof, may be screened for nitric oxide synthase inhibiting activity by a procedure based on that of Förstermann et al., Eur. J. Pharm., 1992, 225, 161–165. Nitric oxide synthase converts ^3H-L-arginine into ^3H-L-citrulline which can be separated by cation exchange chromatography and quantified by liquid scintillation counting.
Enzyme is prepared, after induction, from the cultured murine macrophage cell line J774A-1 (obtained from the laboratories of the Imperial Cancer Research Fund). J774A-1 cells are cultured in Dulbeccos Modified Eagles Medium (DMEM) supplemented with 10% foetal bovine serum, 4 mM L-glutamine and antibiotics (100 units/nl penicillin G, […] streptomycin & […] ainphotericin B). Cells are routinely grown in […] flasks containing 35 ml medium kept at 37° C. and in a humidified atmosphere containing 5% CO2. […]
Labelled L-citrulline is separated from labelled L-arginine using Dowex AG-50W. […] After allowing the samples to dry the L-citrulline is quantified by scintillation counting.
In a typical experiment basal activity is 300 dpm per 75 μl sample which is increased to 1900 dpm in the reagent controls. […] Compounds are tested at a range of concentrations and from the inhibitions is obtained IC50 values are calculated. […]

| SMILES | IC50 |
| --- | --- |
| N=C(N)NN [ainlinoguanidine] | 10 µM |
